Measured values taken from patent US8802856B2, “Quaternary ammonium diphenylmethyl compounds useful as muscarinic receptor antagonists” (Theravance Biopharma R&D IP, LLC, priority 2007, dated 2014).

What was measured:
MCh response = test: Rat Einthoven assay (bronchoprotection); format: in vivo; conditions: inhalation; for ID50 (bronchoprotection): 1.5 hrs post-dose
Method: All test compounds are diluted in sterile water and are dosed via the inhalation route (IH). The rats (Sprague-Dawley, male, 250-350 g) are exposed to the aerosol generated from an LC Star Nebulizer Set and driven by a mixture of gases (5% CO2/95% atmospheric air). Each test compound solution is nebulized over a 10 minute time period in a pie shaped dosing chamber capable of holding six rats. At predetermined time points after inhalation of compound, the Einthoven assay is performed.
Thirty minutes prior to the start of pulmonary evaluation, the animals are anesthetized with inactin (thiobutabarbital, 120 mg/kg IP). The jugular vein is catheterized with saline filled polyethylene catheters (PE-50) and used to infuse MCh. The trachea is then dissected and cannulated with a 14G needle and used for rat ventilation during pulmonary evaluation. Once surgery is complete, rats are ventilated using a piston respirator set at a stroke volume of 1 ml/100 g body weight but not exceeding 2.5 ml volume, and at a rate of 90 strokes per minute.
The changes in pressure that occur with each breath are measured. Baseline values are collected for at least 2.5 minutes then rats are challenged non-cumulatively with 2-fold incremental increases of the bronchoconstrictor MCh (5, 10, 20, 40 and 80 μg/ml). The MCh is infused for 2.5 minutes from a syringe pump at a rate of 2 mL/kg/min. The animals are euthanized upon completion of the studies.
Changes in ventilation pressure (cm H2O) in treated animals are expressed as % inhibition of MCh response relative to control animals.
Standard muscarinic antagonists were evaluated in the rat Einthoven assay 1.5 hrs post-dose.
Standards tiotropium and ipratropium were also evaluated 24 hr and/or 6 hr post-dose in the rat Einthoven assay. […] The observed loss of activity at this time point (6 hr) is consistent with its relatively short duration of action in the clinic.

[1] = molecular target: T1, hM3 muscarinic receptor subtype (Homo sapiens, UniProt P20309); test: Radioligand binding assay on muscarinic receptor subtypes ([3H]-NMS displacement)
T1 construct: expressed in transfected cells; crude membranes prepared in house
T1 sequence (P20309 whole entry): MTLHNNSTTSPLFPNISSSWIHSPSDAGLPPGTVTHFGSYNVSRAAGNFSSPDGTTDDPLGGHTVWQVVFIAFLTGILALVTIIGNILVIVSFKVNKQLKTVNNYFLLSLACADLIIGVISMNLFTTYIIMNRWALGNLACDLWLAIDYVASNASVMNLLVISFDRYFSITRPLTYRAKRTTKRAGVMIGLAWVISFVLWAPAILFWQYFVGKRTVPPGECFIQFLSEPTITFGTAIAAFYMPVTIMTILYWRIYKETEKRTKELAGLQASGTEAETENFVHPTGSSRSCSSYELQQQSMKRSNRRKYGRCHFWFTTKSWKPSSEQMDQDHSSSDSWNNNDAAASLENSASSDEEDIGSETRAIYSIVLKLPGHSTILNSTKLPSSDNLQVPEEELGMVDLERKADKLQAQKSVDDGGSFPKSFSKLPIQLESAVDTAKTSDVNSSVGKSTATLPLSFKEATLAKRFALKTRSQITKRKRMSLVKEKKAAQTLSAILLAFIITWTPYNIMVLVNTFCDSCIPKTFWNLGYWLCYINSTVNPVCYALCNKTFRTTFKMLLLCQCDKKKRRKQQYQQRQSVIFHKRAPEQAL
Method: CHO cell lines stably expressing cloned human hM1, hM2, hM3 and hM4 muscarinic receptor subtypes, respectively, were grown to near confluency in medium consisting of HAM's F-12 supplemented with 10% FBS and 250 μg/mL Geneticin. The cells were grown in a 5% CO2, 37° C. incubator and lifted with 2 mM EDTA in dPBS. Cells were collected by 5 minute centrifugation at 650×g, and cell pellets were either stored frozen at −80° C. or membranes were prepared immediately. For membrane preparation, cell pellets were resuspended in lysis buffer and homogenized with a Polytron PT-2100 tissue disrupter (Kinematica AG; 20 seconds×2 bursts). Crude membranes were centrifuged at 40,000×g for 15 minutes at 4° C. […] The protein concentration of the membrane suspension was determined by the method described in Lowry, O. et al., Journal of Biochemistry 193:265 (1951). […]
Radioligand binding assays were performed in 96-well microtiter plates in a total assay volume of […]. […] Filter plates were rinsed three times with wash buffer (10 mM HEPES) to remove unbound radioactivity. […] The plates were then counted in a PerkinElmer Topcount liquid scintillation counter (PerkinElmer Inc., Wellesley, Mass.). Binding data were analyzed by nonlinear regression analysis with the GraphPad Prism Software package (GraphPad Software, Inc., San Diego, Calif.) using the one-site competition model. […]

[2] = system: pilocarpine-induced salivation; test: Rat antisialagogue assay; format: in vivo; conditions: evaluated at 1, 6, and 24 hr post-dose
Method: Rats (Sprague-Dawley, male, 250-350 g) are dosed, anesthetized and cannulated as described for Assay 3. At predetermined time points and after surgery, animals are placed on their dorsal side at a 200 incline with their head in a downward slope. A pre-weighed gauze pad is inserted in the animal's mouth and the muscarinic agonist pilocarpine (PILO) (3 mg/kg, iv.) is administered. Saliva produced during 10 minutes post-PILO is measured gravimetrically by determining the weight of the gauze pad before and after PILO. Antisialagogue effects are expressed as % inhibition of salivation relative to control animals.
The rat antisialagogue assay was developed to assess systemic exposure and calculate the lung selectivity index (LSI) of test compounds. The standard, tiotropium, was evaluated in this model at 1, 6, and 24 hr post-dose. […] This finding is consistent with the peak effects observed in the Einthoven assay.
This model is a modified version of the procedure described in Rechter, “Estimation of anticholinergic drug effects in mice by antagonism against pilocarpine-induced salivation” Ata Pharmacol Toxicol 24:243-254 (1996). The mean weight of saliva in vehicle-treated animals, at each pre-treatment time, is calculated and used to compute % inhibition of salivation, at the corresponding pre-treatment time, at each dose.

C[N+]1(C)CCC(OC(=O)C(O)(c2ccccc2)C2CCCC2)C1 (stereo not shown) [glycopyrrolate]
ID50 (bronchoprotection) (MCh response): 15 µg/mL

C[N+]1(CCCSc2ccccc2)CC[C@@H](C(C(N)=O)(c2ccccc2)c2ccccc2)C1 (stereo partly drawn) [Example 2, (S)-3-(Carbamoyldiphenylmethyl)-1-methyl-1-(3-phenylsulfanylpropyl)pyrrolidinium]
Ki [1]: < 0.5 nM

CC(C)[N+]1(C)[C@@H]2CC[C@H]1C[C@@H](OC(=O)C(CO)c1ccccc1)C2 (stereo partly shown) [ipratropium]
fold less potent 6-hr post-dose compared to 1.5 hr potency (MCh response; 10 and 30 μg/ml): about 3 fold | ID50 (bronchoprotection) (MCh response): 4.4 µg/mL

C[N+]1(C)[C@@H]2C[C@@H](OC(=O)C(O)(c3cccs3)c3cccs3)C[C@H]1[C@@H]1O[C@@H]12 [tiotropium]
6 hr versus 24 hr potency values (MCh response): not significantly different | fold more potent at 6 hr and 24 hr compared to 1.5 hr potency (MCh response): about 2 fold | onset of effect (MCh response): slow onset of effect | time of peak bronchoprotection post-dose (MCh response): 6 h | ID50 (bronchoprotection) (MCh response): 6 µg/mL | time post dose at which most potent at inhibiting pilocarpine-induced salivation [2]: 6 h
